Reference: ChEMBL document CHEMBL3992552, “Mechanisms of action and structure-activity relationships of cytotoxic flavokawain derivatives” (Bioorg Med Chem, 2017)
Calls of active or inactive are those of the source. The rule behind the calls is not given here.

Legend:
HaCaT [1] = assay: Cytotoxicity against human HaCaT cells assessed as cell survival at 50 uM after 48 hrs by Hoechst 33342 staining based assay relative to control; assay type: functional; settings: read-out: Survival
PC-3 [2] = assay: Cytotoxicity against human PC3 cells assessed as cell survival at 50 uM after 48 hrs by Hoechst 33342 staining based assay relative to control; assay type: functional; settings: PC-3, 48 h, read-out: Survival
[3] = Cytotoxicity against human fibroblasts assessed as cell survival at 50 uM after 48 hrs by Hoechst 33342 staining based assay relative to control; parameters: species or system Fibroblast; settings: read-out: Survival
Caco-2 [4] = assay: Cytotoxicity against human Caco2 cells assessed as cell survival at 50 uM after 48 hrs by Hoechst 33342 staining based assay relative to control; assay type: functional; settings: Caco-2, 48 h, read-out: Survival
MDA-MB-231 [5] = assay: Cytotoxicity against human MDA-MB-231 cells assessed as cell survival at 50 uM after 48 hrs by Hoechst 33342 staining based assay relative to control; assay type: functional; settings: MDA-MB-231, 48 h, read-out: Survival
NCI-H727 [6] = assay: Cytotoxicity against human NCI-H727 cells assessed as cell survival at 50 uM after 48 hrs by Hoechst 33342 staining based assay relative to control; assay type: functional; settings: NCI-H727, 48 h, read-out: Survival
Huh-7 [7] = assay: Cytotoxicity against human HuH7 cells assessed as cell survival at 50 uM after 48 hrs by Hoechst 33342 staining based assay relative to control; assay type: functional; settings: Huh-7, 48 h, read-out: Survival
HCT-116 [8] = assay: Cytotoxicity against human HCT116 cells assessed as cell survival at 50 uM after 48 hrs by Hoechst 33342 staining based assay relative to control; assay type: functional; settings: HCT-116, 48 h, read-out: Survival
[9] = Selectivity index, ratio of IC50 for human fibroblasts to IC50 for human Caco2 cells
RL = assay: Cytotoxicity against human RL assessed as cell viability after 48 hrs by Hoechst 33342 staining based assay; assay type: functional
MCF7 [10] = assay: Cytotoxicity against human MCF7 assessed as cell viability after 48 hrs by Hoechst 33342 staining based assay; assay type: functional; settings: MCF7, 48 h
[11] = Selectivity index, ratio of IC50 for human fibroblasts to IC50 for human RL cells
HaCaT [12] = assay: Cytotoxicity against human HaCaT cells assessed as cell viability after 48 hrs by Hoechst 33342 staining based assay; assay type: functional
Fibroblast = assay: Cytotoxicity against human fibroblasts assessed as cell viability after 48 hrs by Hoechst 33342 staining based assay
[13] = Selectivity index, ratio of IC50 for human fibroblasts to IC50 for human MCF7 cells
Huh-7 [14] = assay: Cytotoxicity against human HuH7 cells assessed as cell viability after 48 hrs by Hoechst 33342 staining based assay; assay type: functional; settings: Huh-7, 48 h
Caco-2 [15] = assay: Cytotoxicity against human Caco2 cells assessed as cell viability after 48 hrs by Hoechst 33342 staining based assay; assay type: functional; settings: Caco-2, 48 h
[16] = Selectivity index, ratio of IC50 for human fibroblasts to IC50 for human MDA-MB-231 cells
[17] = Selectivity index, ratio of IC50 for human fibroblasts to IC50 for human HuH7 cells
[18] = Selectivity index, ratio of IC50 for human fibroblasts to IC50 for human PC3 cells
[19] = Selectivity index, ratio of IC50 for human fibroblasts to IC50 for human HaCaT cells
NCI-H727 [20] = assay: Cytotoxicity against human NCI-H727 cells assessed as cell viability after 48 hrs by Hoechst 33342 staining based assay; assay type: functional; settings: NCI-H727, 48 h
PC-3 [21] = assay: Cytotoxicity against human PC3 cells assessed as cell viability after 48 hrs by Hoechst 33342 staining based assay; assay type: functional; settings: PC-3, 48 h
HCT-116 [22] = assay: Cytotoxicity against human HCT116 cells assessed as cell viability after 48 hrs by Hoechst 33342 staining based assay; assay type: functional; settings: HCT-116, 48 h
[23] = Selectivity index, ratio of IC50 for human fibroblasts to IC50 for human HCT116 cells
MDA-MB-231 [24] = assay: Cytotoxicity against human MDA-MB-231 cells assessed as cell viability after 48 hrs by Hoechst 33342 staining based assay; assay type: functional; settings: MDA-MB-231, 48 h
[25] = Selectivity index, ratio of IC50 for human fibroblasts to IC50 for human NCI-H727 cells
MCF7 [26] = assay: Induction of apoptosis in human MCF7 cells harboring wild-type p53 assessed as increase in early apoptosis at 2 times IC50 after 24 hrs by YoPro/propidium iodide/Hoechst staining based assay; assay type: functional, cell-based
PC-3 [27] = assay: Induction of apoptosis in human PC3 cells harboring p53 mutant assessed as upregulation of cyclinB1 after 48 hrs by Hoechst staining based assay; assay type: functional, cell-based
PC-3 [28] = assay: Induction of apoptosis in human PC3 cells harboring p53 mutant assessed as increase in late apoptosis at 2 times IC50 after 48 hrs by YoPro/propidium iodide/Hoechst staining based assay; assay type: functional, cell-based
MCF7 [29] = assay: Induction of apoptosis in human MCF7 cells harboring wild-type p53 assessed as upregulation of cyclinB1 measured after 18 hrs by Hoechst staining based assay; assay type: functional, cell-based
MDA-MB-231 [30] = assay: Induction of apoptosis in human MDA-MB-231 cells harboring p53 mutant assessed as upregulation of cyclinB1 after 18 hrs by Hoechst staining based assay; assay type: functional, cell-based
MDA-MB-231 [31] = assay: Induction of apoptosis in human MDA-MB-231 cells harboring p53 mutant assessed as increase in early apoptosis at 2 times IC50 after 24 hrs by YoPro/propidium iodide/Hoechst staining based assay; assay type: functional, cell-based
MDA-MB-231 [32] = assay: Induction of apoptosis in human MDA-MB-231 cells harboring p53 mutant assessed as increase in cleaved caspase3 at 2 times IC50 after 24 hrs by Hoechst staining based assay; assay type: functional, cell-based
MCF7 [33] = assay: Induction of apoptosis in human MCF7 cells harboring wild-type p53 assessed as increase in late apoptosis at 2 times IC50 after 24 hrs by YoPro/propidium iodide/Hoechst staining based assay; assay type: functional, cell-based
MDA-MB-231 [34] = assay: Induction of apoptosis in human MDA-MB-231 cells harboring p53 mutant assessed as increase in late apoptosis at 2 times IC50 after 24 hrs by YoPro/propidium iodide/Hoechst staining based assay; assay type: functional, cell-based
HCT-116 [35] = assay: Induction of apoptosis in human HCT116 cells harboring wild-type p53 assessed as increase in cleaved caspase3 at 2 times IC50 after 48 hrs by Hoechst staining based assay; assay type: functional, cell-based
HCT-116 [36] = assay: Induction of apoptosis in human HCT116 cells harboring wild-type p53 assessed as increase in early apoptosis at 2 times IC50 after 48 hrs by YoPro/propidium iodide/Hoechst staining based assay; assay type: functional, cell-based
MCF7 [37] = assay: Induction of apoptosis in human MCF7 cells harboring wild-type p53 assessed as upregulation of p21 measured after 48 hrs by Hoechst staining based fluorescence assay; assay type: functional, cell-based
PC-3 [38] = assay: Induction of apoptosis in human PC3 cells harboring p53 mutant assessed as increase in early apoptosis at 2 times IC50 after 48 hrs by YoPro/propidium iodide/Hoechst staining based assay; assay type: functional, cell-based
HCT-116 [39] = assay: Induction of apoptosis in human HCT116 cells harboring wild-type p53 assessed as increase in late apoptosis at 2 times IC50 after 48 hrs by YoPro/propidium iodide/Hoechst staining based assay; assay type: functional, cell-based
PC-3 [40] = assay: Induction of apoptosis in human PC3 cells harboring p53 mutant assessed as increase in cleaved caspase3 at 2 times IC50 after 48 hrs by Hoechst staining based assay; assay type: functional, cell-based
HCT-116 [41] = assay: Induction of apoptosis in human HCT116 cells harboring wild-type p53 assessed as upregulation of cyclinB1 measured after 48 hrs by Hoechst staining based assay; assay type: functional, cell-based
HCT-116 [42] = assay: Induction of apoptosis in human HCT116 cells harboring wild-type p53 assessed as upregulation of p21 measured after 48 hrs by Hoechst staining based fluorescence assay; assay type: functional, cell-based

| SMILES | viability at 50 µM (HaCaT [1]) | viability at 50 µM (PC-3 [2]) | viability at 48 h, 50 µM [3] | viability at 50 µM (Caco-2 [4]) | viability at 50 µM (MDA-MB-231 [5]) | viability at 50 µM (NCI-H727 [6]) | viability at 50 µM (Huh-7 [7]) | viability at 50 µM (HCT-116 [8]) | other results |
| --- | --- | --- | --- | --- | --- | --- | --- | --- | --- |
| COc1cc(O)c(C(=O)/C=C/c2ccc(Cl)cc2)c(OC)c1 | > 80% | > 80% | > 80% | > 80% | > 80% | > 80% | > 80% | > 80% | – |
| COc1ccc(/C=C/C(=O)c2c(O)cc(OC)cc2OC)cc1 [FLAVOKAWAIN A] | 35% | 43% | 67% | 32% | 58% | 40% | 50% | 20% | – |
| COc1cc(OC)c(C(=O)/C=C/c2ccccc2OC)c(OC)c1 | 23% | 32% | 77% | 5% | 11% | 1% | 6% | 0% | Ratio IC50 [9]: 1.8; IC50 (RL): 9 µM; IC50 (MCF7 [10]): 8.9 µM; Ratio IC50 [11]: 0.9; IC50 (HaCaT [12]): 8.7 µM; IC50 (Fibroblast): 8.2 µM; Ratio IC50 [13]: 0.9; IC50 (Huh-7 [14]): 9.8 µM; IC50 (Caco-2 [15]): 4.5 µM; Ratio IC50 [16]: 0.6; Ratio IC50 [17]: 0.8; Ratio IC50 [18]: 1; Ratio IC50 [19]: 0.9; IC50 (NCI-H727 [20]): 4 µM; IC50 (PC-3 [21]): 8.1 µM; IC50 (HCT-116 [22]): 4.2 µM; Ratio IC50 [23]: 2; IC50 (MDA-MB-231 [24]): 13 µM; Ratio IC50 [25]: 2.1 |
| COc1cc(O)c(C(=O)/C=C/c2ccc(Br)cc2)c(OC)c1 | 66% | 58% | > 80% | > 80% | > 80% | 72% | > 80% | > 80% | Activity (MCF7 [26]): inactive; Activity (PC-3 [27]): inactive; Activity (PC-3 [28]): inactive; Activity (MCF7 [29]): inactive; Activity (MDA-MB-231 [30]): inactive; Activity (MDA-MB-231 [31]): inactive; Activity (MDA-MB-231 [32]): inactive; Activity (MCF7 [33]): inactive; Activity (MDA-MB-231 [34]): inactive; Activity (HCT-116 [35]): inactive; Activity (HCT-116 [36]): inactive; Activity (MCF7 [37]): inactive; Activity (PC-3 [38]): inactive; Activity (HCT-116 [39]): inactive; Activity (PC-3 [40]): inactive; Activity (HCT-116 [41]): inactive; Activity (HCT-116 [42]): inactive |
| COc1cc(OC)c(C(=O)/C=C/c2ccc(O)cc2)c(OC)c1 | 16% | 33% | 65% | 24% | 32% | 42% | 45% | 17% | – |
| COc1cc(O)c(C(=O)/C=C/c2ccc(C(=O)O)cc2)c(OC)c1 | > 80% | > 80% | > 80% | > 80% | > 80% | > 80% | > 80% | > 80% | – |
| COc1cc(O)c(C(=O)/C=C/c2ccc(N(C)C)cc2)c(OC)c1 | > 80% | > 80% | > 80% | > 80% | > 80% | > 80% | > 80% | > 80% | – |
| COc1cc(OC)c(C(=O)/C=C/c2ccc(C(=O)O)cc2)c(OC)c1 | 59% | 39% | 57% | 25% | 68% | 23% | 38% | 7% | – |
